Assay results as given in article PMC6300691, “Enhancement of Heat Stability and Kinetic Parameters of the Maize Endosperm ADP-Glucose Pyrophosphorylase by Mutagenesis of Amino Acids in the Small Subunit With High B Factors” (Frontiers in Plant Science, 2018).
Residue numbers refer to the chain shown, from its start.

Tests used:
[1] = biological target: T1, wt (SH2-WT/BT2-WT) (Zea mays, UniProt P55241+Q947C0)
Description: All reactions were developed as above. The activation constant was fitted to the following equation, V = Vmin + Vmax^∗X/(Ka + X), since several enzymes had appreciable activity in the absence of activator. Here, Vmin is the velocity in the absence of activator and Vmax is the change in activity from Vmin to the total velocity, X is the activator concentration, Ka is the activation constant. All linear regressions were carried out using the software program Prism (GraphPad, San Diego, CA, United States).

[2] = biological target: T2, E123G, R331K, K402R (BT2-BF) (Zea mays, UniProt P55241+Q947C0, E123G/R331K/K402R); assay: Pi inhibition study without 3-PGA, ATP varied (0.1-3 mM) at fixed Pi levels (10-30 mM) and sub-saturating G-1-P (1 mM), fit to mixed-type inhibition equations.; type: biochemical; conditions: read-out: Km (mM), varied substrate ATP, Pi inhibition in the absence of 3-PGA
T2 construct: BT2-BF with wild type SH2 (SH2-WT/BT2-BF), E. coli, purified
T2 sequence (Q947C0 1-475 E123G/R331K/K402R): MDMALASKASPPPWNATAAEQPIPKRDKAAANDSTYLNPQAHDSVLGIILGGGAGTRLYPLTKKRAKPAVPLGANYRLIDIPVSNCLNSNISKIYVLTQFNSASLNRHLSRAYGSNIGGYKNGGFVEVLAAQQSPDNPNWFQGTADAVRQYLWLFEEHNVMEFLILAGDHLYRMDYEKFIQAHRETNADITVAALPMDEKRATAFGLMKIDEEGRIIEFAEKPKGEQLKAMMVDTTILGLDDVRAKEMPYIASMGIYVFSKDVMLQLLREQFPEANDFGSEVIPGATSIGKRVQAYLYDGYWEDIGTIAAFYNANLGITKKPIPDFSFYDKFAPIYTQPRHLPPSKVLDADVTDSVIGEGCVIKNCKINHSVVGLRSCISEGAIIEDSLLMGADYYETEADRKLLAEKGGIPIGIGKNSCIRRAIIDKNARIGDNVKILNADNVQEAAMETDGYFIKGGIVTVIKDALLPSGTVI
T2 sequence (P55241 46-516): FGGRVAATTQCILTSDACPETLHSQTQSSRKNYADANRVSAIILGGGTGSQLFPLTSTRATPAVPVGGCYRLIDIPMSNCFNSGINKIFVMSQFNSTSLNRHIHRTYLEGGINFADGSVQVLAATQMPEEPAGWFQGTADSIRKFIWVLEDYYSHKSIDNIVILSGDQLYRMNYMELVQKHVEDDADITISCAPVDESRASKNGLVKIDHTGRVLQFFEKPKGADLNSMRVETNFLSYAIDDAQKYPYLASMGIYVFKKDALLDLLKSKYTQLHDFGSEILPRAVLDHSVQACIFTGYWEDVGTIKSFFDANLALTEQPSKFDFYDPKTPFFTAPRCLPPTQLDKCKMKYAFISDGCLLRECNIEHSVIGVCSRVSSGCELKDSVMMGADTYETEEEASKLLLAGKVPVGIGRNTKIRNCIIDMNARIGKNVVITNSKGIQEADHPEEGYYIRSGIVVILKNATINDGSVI
Description: (§2) Pi inhibition was carried out in both the presence and absence of 3-PGA with the Pi and substrate concentrations listed below.
(§3) Pi inhibition patterns in the presence and absence of 3PGA were also determined. Pi inhibition patterns were obtained by varying one substrate at several fixed concentrations of Pi, while holding the co-substrate at constant sub-saturating levels.

[3] = biological target: T3, K403L (Zea mays, UniProt P55241+Q947C0, K403L); assay: Initial-rate assay (PPi formation coupled to NADH oxidation) with varied ATP (0.05-3.0 mM) at 2.0 mM G-1-P, 2.5 mM 3-PGA, 15 mM MgCl2, 50 mM HEPES pH 7.4, hyperbolic fit.; type: biochemical; conditions: read-out: KM ATP
T3 construct: BT2 variant with wild type SH2, E. coli, purified
Description: (§1) All saturation plots were hyperbolic. No cooperative effects were seen.

[4] = biological target: T4, K402R (Zea mays, UniProt P55241+Q947C0, K402R); assay: as above; type: biochemical; conditions: read-out: KM ATP
T4 construct: BT2 variant with wild type SH2, E. coli, purified
Description: as §1

[5] = biological target: T5, L404H (Zea mays, UniProt P55241+Q947C0, L404H); assay: as above; type: biochemical; conditions: read-out: KM ATP
T5 construct: BT2 variant with wild type SH2, E. coli, purified
Description: as §1

[6] = biological target: T6, R331K (Zea mays, UniProt P55241+Q947C0, R331K); assay: as above; type: biochemical; conditions: read-out: KM ATP
T6 construct: BT2 variant with wild type SH2, E. coli, purified
Description: as §1

[7] = biological target: T7, SH2-E/BT2-BF (Zea mays, UniProt P55241+Q947C0, E123G/N131R/T142F/A160T/Q261S/R331K/A396S/K402R/V416I/C424V/S444A); assay: Pi inhibition study without 3-PGA, ATP varied (0.1-3 mM) at fixed Pi levels (10-30 mM) and sub-saturating G-1-P (1 mM), fit to mixed-type inhibition equations.; type: biochemical; conditions: read-out: Km (mM), varied substrate ATP, Pi inhibition in the absence of 3-PGA
T7 construct: SH2-E co-expressed with BT2-BF, E. coli, purified
T7 sequence (Q947C0 1-475 E123G/R331K/K402R): T2 sequence (Q947C0 1-475 E123G/R331K/K402R)
T7 sequence (P55241 46-516 N131R/T142F/A160T/Q261S/A396S/V416I/C424V/S444A): T2 sequence (P55241 46-516) with N86R, T97F, A115T, Q216S, A351S, V371I, C379V, S399A
Description: as §2, §3

[8] = biological target: T8, SH2-ISM/BT2-BF (Zea mays, UniProt P55241+Q947C0, Q96G/E123G/D161G/R331K/K402R/A443R); assay: as above; type: biochemical; conditions: read-out: Km (mM), varied substrate ATP, Pi inhibition in the absence of 3-PGA
T8 construct: SH2-ISM co-expressed with BT2-BF, E. coli, purified
T8 sequence (Q947C0 1-475 E123G/R331K/K402R): T2 sequence (Q947C0 1-475 E123G/R331K/K402R)
T8 sequence (P55241 46-516 Q96G/D161G/A443R): T2 sequence (P55241 46-516) with Q51G, D116G, A398R
Description: as §2
A large α value indicates competitive inhibition whereby the inhibitor prevents binding of the substrate. If the inhibitor enhances the binding of the substrate, α is very small, and the model reduces to an uncompetitive model. […] Special cases include pure non-competitive inhibition, where α = 1 and β = 0 and partial non-competitive inhibition whereby α = 1 and 0 < β < 1.
as §3

[9] = biological target: T1, wt (SH2-WT/BT2-WT); conditions: read-out: Km (mM), varied substrate ATP, Pi inhibition in the absence of 3-PGA
Description: as §2, §3

T1 sequence (Q947C0 1-475, one chain of several): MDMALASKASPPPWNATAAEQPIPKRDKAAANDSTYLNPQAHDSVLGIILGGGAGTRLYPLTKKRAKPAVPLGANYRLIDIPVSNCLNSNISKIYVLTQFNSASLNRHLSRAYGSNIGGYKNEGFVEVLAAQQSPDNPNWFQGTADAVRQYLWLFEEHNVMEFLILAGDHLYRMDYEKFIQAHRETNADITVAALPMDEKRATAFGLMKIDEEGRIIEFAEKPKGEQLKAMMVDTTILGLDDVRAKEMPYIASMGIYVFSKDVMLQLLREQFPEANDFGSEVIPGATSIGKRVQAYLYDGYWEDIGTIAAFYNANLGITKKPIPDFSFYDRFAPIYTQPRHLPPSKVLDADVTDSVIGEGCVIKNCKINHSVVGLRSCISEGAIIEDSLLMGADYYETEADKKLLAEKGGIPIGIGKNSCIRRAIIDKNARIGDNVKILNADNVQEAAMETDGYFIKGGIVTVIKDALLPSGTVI
T3 sequence (Q947C0 1-475 K403L, one chain of several): as the sequence (Q947C0 1-475, one chain of several) above, with K403L counted along it
T6 sequence (Q947C0 1-475 R331K, one chain of several): as the sequence (Q947C0 1-475, one chain of several) above, with R331K counted along it
T4 sequence (Q947C0 1-475 K402R, one chain of several): as the sequence (Q947C0 1-475, one chain of several) above, with K402R counted along it
T5 sequence (Q947C0 1-475 L404H, one chain of several): as the sequence (Q947C0 1-475, one chain of several) above, with L404H counted along it

| SMILES | 3-PGA Ka (activation constant) [1] | Km [2] [mM] | Km [3] [µM] | Km [4] [µM] | Km [5] [µM] | Km [6] [µM] | Km [7] [mM] | Km [8] [mM] | Km [9] [mM] |
| --- | --- | --- | --- | --- | --- | --- | --- | --- | --- |
| O=C(O)[C@H](O)COP(=O)(O)O [3-PGA, 3-phosphoglycerate (3-phosphoglyceric acid)] | 0.26 ± 0.061 |  |  |  |  |  |  |  |  |
| Nc1ncnc2c1ncn2[C@@H]1O[C@H](COP(=O)(O)OP(=O)(O)OP(=O)(O)O)[C@@H](O)[C@H]1O [ATP, adenosine 5'-triphosphate] |  | 0.79 ± 0.075 | 82 ± 17 | 79 ± 15 | 132 ± 22 | 88 ± 13 | 4.98 ± 0.66 | 3.6 ± 1.63 | 20.4 ± 10.1 |
